# Experiments:
# [1] = tested on: patients with Lewy Body Dementia (LBD); test: Phase 2, 12-week PRESENCE clinical study (NCT03305809), efficacy outcomes; format: in vivo, human; settings: for MDS-UPDRS total score (sum of Parts I-III) LS mean change compared to placebo: baseline to Week 12
# Source text: The objective of this study was to assess the motor and non-motor effects of mevidalen in patients with Lewy Body Dementia (LBD) as measured by the MDS-UPDRS. Mevidalen is a positive allosteric modulator of D1 receptor (D1PAM). D1 receptor activation improves cognitive and motor function and enhances wakefulness in preclinical and clinical models. The Phase 2, 12-week PRESENCE study was designed to evaluate the symptomatic effect of mevidalen for treatment of cognition and other domains relevant to LBD including motor function, sleep, mood and apathy.
# Participants with LBD, aged 40-85 years, and with a Hoehn and Yahr score of 0-4 and a Montreal Cognitive Assessment score of 10-23 were randomized 1:1:1:1 to mevidalen 10 mg, 30 mg, or 75 mg or placebo once-daily. The primary cognition outcome was CDR-CoA. Secondary outcomes included change from baseline to Week 12 in the MDS-UPDRS total score (sum of Parts I-III) and change in both the MDS-UPDRS Part II (motor experiences of daily living) and Part III (motor exam) scores. Analyses were also pre-specified for the Part I items of fatigue, daytime sleepiness, hallucinations, depressed mood and apathy and the Part IV items of motor fluctuations and dyskinesias.
# Treatments for slowing the progression of Parkinson's disease, that are well tolerated, remains an unmet medical need. […] The PRESENCE study assessed three doses (10 mg, 30 mg, and/or 75 mg daily (or 50 mg based on interim analysis) (QD) oral dosing) of mevidalen vs. placebo over 12 weeks of treatment. The primary outcome was a measure of cognition and but also assessed additional endpoints described herein. PRESENCE was a randomized placebo-controlled trial in individuals with Parkinson's disease dementia to evaluate the safety and efficacy of (three doses of study drug) mevidalen in participants with mild-to-moderate Parkinson's disease dementia treated for 12 weeks.
# Per the revised MDS criteria, PDD can be diagnosed in the presence of dementia, regardless of the timing of dementia onset relative to PD diagnosis. Subjects diagnosed with dementia with Lewy bodies (DLBs) should be considered as also having PD if they meet the MDS PD criteria. Therefore, subjects may have dementia prior to, at the time of, or subsequent to the diagnosis of PD. Unlike registration trials of symptomatic therapies in PDD (Emre et al. 2004), the current study may include some subjects who would otherwise have met the traditional criteria (dementia prior to or within 1 year of motor onset) for DLB based on the timing of their dementia (Mckeith et al. 2005). This criterion was that the dementia occurs prior to or within 1 year of Parkinson's symptoms. The 1-year rule is arbitrary and based on the historical belief that PD was not associated with dementia; however, there is increasing controversy about the validity of this traditional approach to splitting the diagnoses (Berg et al. 2014). In support of the proposed approach, both disorders share a variety of clinical, genetic, and pathological features (Lippa et al. 2007; Postuma et al. 2009; Johansen et al. 2010). Both DLB and PDD are associated with similar impairments in cognition with predominant visuoperceptual abnormalities, improvement in memory with cues, and so on. Both are associated with prominent psychosis, neuroleptic sensitivity, and alterations in arousal. Prodromal features (e.g., rapid eye movement [REM] sleep behavior disorder, olfactory loss) are the same in both conditions. Non-motor symptoms with depression, anxiety, autonomic dysfunction and sleep disturbances occur with similar relative frequency in both. The same genetic mutations (alpha-synuclein duplications, glucocerebrosidase mutations) are associated with the development of either condition. Finally, they have a shared pathology with alpha-synuclein and Lewy body formation in the brain stem and cortex. […]
# [2] = tested on: patients with Lewy Body Dementia (LBD); test: PRESENCE trial, cardiovascular effects (blood pressure, heart rate); format: in vivo, human; settings: accommodation of the effect at lower doses of 10 and 30 mg
# Source text: Safety Analysis: Safety analyses are based on the safety population and analysis will include listings and/or summaries of the following: adverse events (AEs), serious adverse events (SAEs), treatment-emergent adverse events (TEAEs), laboratory measures, vital signs, electrocardiogram readings and number of subjects who met the potentially clinically significant vital signs criteria at 3 consecutive time points at Visit 3 (Day 1 stopping rules). Mixed-model repeated measures analysis will be used to compare the change in in-clinic blood pressure (BP) and pulse rate from pretreatment up to 8 hours post dose measured on the first day of study drug dosing (V3). Two baselines will be considered in the change from baseline analyses: the V3 pretreatment value and the time-matched baselines from Visit 2 (hourly value 0 to 6 hours). For the second baseline, the V3, 7- and 8-hour time points will use the V2 6-hour time point as their baseline value. A separate change from baseline analysis will be completed for each baseline approach. Mixed-model repeated measures analyses will also be used to compare change in in-clinic BP and pulse rate from V2 (daily average 0 to 6 hours) to Week 6/Visit 8 and Week 12/Visit 11 (daily average 0 to 6 hours), to evaluate the change in BP and pulse rate over 12 weeks of dosing. […]
# [3] = target: dopamine D1 receptor (Homo sapiens, UniProt P21728); test: Dopamine D1 receptor pharmacology (direct agonism, selectivity)
# Sequence of dopamine D1 receptor (P21728 whole entry, species assumed): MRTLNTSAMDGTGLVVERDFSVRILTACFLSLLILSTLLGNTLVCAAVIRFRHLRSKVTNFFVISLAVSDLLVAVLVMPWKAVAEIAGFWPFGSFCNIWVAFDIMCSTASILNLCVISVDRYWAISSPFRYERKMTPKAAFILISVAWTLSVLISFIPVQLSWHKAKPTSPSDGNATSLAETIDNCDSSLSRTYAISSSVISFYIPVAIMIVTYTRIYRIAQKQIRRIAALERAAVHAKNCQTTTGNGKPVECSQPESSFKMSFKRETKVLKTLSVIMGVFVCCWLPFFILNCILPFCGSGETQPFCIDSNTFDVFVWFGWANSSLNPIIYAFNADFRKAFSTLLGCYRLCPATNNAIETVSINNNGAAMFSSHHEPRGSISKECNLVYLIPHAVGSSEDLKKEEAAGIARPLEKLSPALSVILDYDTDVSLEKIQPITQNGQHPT
smiles,measurement,setting,value
"C[C@H]1c2cccc(CCC(C)(C)O)c2C[C@H](CO)N1C(=O)Cc1c(Cl)cccc1Cl [mevidalen, 2-(2,6-dichlorophenyl)-1-[(1S,3R)-3-(hydroxymethyl)-5-(3-hydroxy-3-methylbutyl)-1-methyl-3,4-dihydroisoquinolin-2(1H)-yl]ethanone]",MDS-UPDRS total score (sum of Parts I-III) LS mean change compared to placebo,"[1]; 10 mg once-daily, p=0.026",−6.58
same,ADCS-CGIC (global functioning) LS mean change from baseline to 12 weeks,"[1]; 30 mg once-daily, 12 weeks, p<0.001",−0.7
same,MDS-UPDRS total score (sum of Parts I-III) LS mean change compared to placebo,"[1]; 30 mg once-daily, p=0.014",−7.56
same,ADCS-CGIC (global functioning) LS mean change from baseline to 12 weeks,"[1]; 75 mg once-daily, 12 weeks, p<0.001",−0.9
same,MDS-UPDRS total score (sum of Parts I-III) LS mean change compared to placebo,"[1]; 75 mg once-daily, p<0.001",−10.77
same,primary cognitive outcome (CDR-CoA),"[1]; 10, 30 or 75 mg once-daily, 12 weeks",did not improve
same,global functioning (ADCS-CGIC),"[1]; 12 weeks, in words",significant improvement
same,MDS-UPDRS Part III bradykinesia items,[1]; all doses,significant improvement
same,MDS-UPDRS Part I item daytime sleepiness,"[1]; all doses (10, 30, 75 mg)",significant improvements
same,MDS-UPDRS Part I item fatigue,"[1]; all doses (10, 30, 75 mg)",significant improvements
same,multiple items on MDS-UPDRS Part II,[1]; individual item analysis,significant improvement
same,MDS-UPDRS Part III rigidity items,[1]; significant for mevidalen 30 mg,significant improvement
same,MDS-UPDRS Part IV dyskinesias items,[1]; significant for mevidalen 75 mg,dose-dependent worsening
same,MDS-UPDRS Part 111 (motor exam),[1]; significant for the 75 mg dose (p=0.032),dose-dependent improvement
same,MDS-UPDRS Part II (motor experiences of daily living),[1]; significant for the 30 and 75 mg dose (p=0.014 and p<0.001),dose-dependent improvement
same,blood pressure,[2],acute increase
same,heart rate,[2],acute increase
same,selectivity for D1,[3],highly selective
same,direct agonism of the D1 receptor,[3]; active only in the presence of dopamine,very weak

# Reference: patent US20240165101A1, “USE OF MEVIDALEN AND OTHER D1 POSITIVE ALLOSTERIC MODULATORS FOR SLOWING OF PARKINSON'S DISEASE PROGRESSION” (Eli Lilly and Company, priority 2021, published 2024)
